{
  "source": "patent US8324384B2",
  "about": "“Glucagon receptor antagonist compounds, compositions containing such compounds and methods of use” (Merck Sharp & Dohme Corp., priority 2010, dated 2012)",
  "data": [
    {"biological_target": "T1, cloned human glucagon receptor (Homo sapiens, UniProt P47871)", "T1 construct": "expressed in transfected cells; cell membranes used", "T1 sequence (P47871 26-477)": "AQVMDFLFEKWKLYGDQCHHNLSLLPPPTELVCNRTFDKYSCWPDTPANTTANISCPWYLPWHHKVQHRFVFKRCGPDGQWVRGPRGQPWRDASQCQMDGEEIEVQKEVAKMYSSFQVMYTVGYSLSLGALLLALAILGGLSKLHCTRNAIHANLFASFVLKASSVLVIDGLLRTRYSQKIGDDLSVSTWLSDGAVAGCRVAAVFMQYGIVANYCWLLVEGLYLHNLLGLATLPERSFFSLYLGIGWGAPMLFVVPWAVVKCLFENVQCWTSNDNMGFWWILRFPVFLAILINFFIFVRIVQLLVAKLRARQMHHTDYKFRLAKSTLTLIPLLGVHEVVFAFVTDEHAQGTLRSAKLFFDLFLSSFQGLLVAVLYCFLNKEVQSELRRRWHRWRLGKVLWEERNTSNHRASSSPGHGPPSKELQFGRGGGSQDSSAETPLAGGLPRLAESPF", "test": "Glucagon Receptor Binding Assay (125I-Glucagon, SPA, CHO cell membranes)", "settings": "inhibition of 125I-Glucagon binding to membranes of CHO cells expressing human glucagon receptor; more active isomer of indicated compounds", "method": "(§1) Glucagon Receptor Binding Assay\n(§2) A stable CHO (Chinese hamster ovary) cell line expressing cloned human glucagon receptor was maintained as described (Chiechi, et. al. J Biol Chem 272, 7765-9(1997); Cascieri, et. al. J Biol Chem 274, 8694-7(1999)). To determine antagonistic binding affinity of compounds, 0.001-0.003 mg of cell membranes from these cells were pre-incubated with 0.100 mg WGA-coated PVT SPA beads (Amersham) for 20 minutes at room temperature in 25 μL of a buffer containing 50 mM Tris-HCl (pH 7.5), 5 mM MgCl2, 2 mM EDTA, 0.1% BSA and 3% glycerol in Costar 384 well plates with clear bottoms (#3706). Next, 25 μL of ^125I-Glucagon (New England Nuclear, MA) (1×10^−14 mol per well) and either 1 μL solutions of test compounds or 0.001 mM unlabeled glucagon or DMSO were added and mixed. After 4-12 hours incubation at room temperature, the radioactivity bound to the cell membranes was determined in a radioactive emission detection counter (Wallac-Microbeta). Data were analyzed using the Data Analyzer software program of Merck & Co., Inc. The IC50 values were calculated using non-linear regression analysis assuming single-site competition.", "units": {"IC50": "nM"}, "values": [
      {"smiles": "CCCC(c1ccc(C(=O)NCC(O)C(=O)O)cc1)C(C(=O)N1Cc2ccc(OC(F)(F)F)cc2C1)c1ccc(Cl)cc1", "note": "(mixture of isomers) [Example 99]", "IC50": 1.1},
      {"smiles": "CCCC(c1ccc(C(=O)NC(C)CC(=O)O)cc1)C(C(=O)N1Cc2ccc(OC(F)(F)F)cc2C1)c1ccc(Cl)cc1", "note": "(mixture of isomers) [Example 101]", "IC50": 5.9},
      {"smiles": "CCCC(c1ccc(C(=O)NCCC(=O)O)cc1)C(C(=O)N1CCc2ccccc21)c1ccc(Cl)cc1", "note": "(racemic) [Example 3, N-(4-{1-[1-(4-chlorophenyl)-2-(2,3-dihydro-1H-indol-1-yl)-2-oxoethyl]butyl}benzoyl)-β-alanine]", "IC50": 10},
      {"smiles": "CCCC(c1ccc(C(=O)NCCC(=O)O)cc1)C(C(=O)N1Cc2cccc(C(F)(F)F)c2C1)c1ccc(Cl)cc1", "note": "(single isomer, unassigned) [Example 1, N-[4-(1-{1-(4-chlorophenyl)-2-oxo-2-[4-(trifluoromethyl)-1,3-dihydro-2H-isoindol-2-yl]ethyl}butyl)benzoyl]-β-alanine]", "IC50": 0.8},
      {"smiles": "CCCC(c1ccc(C(=O)NCCC(=O)O)cc1)C(C(=O)N1CCCc2ccccc21)c1ccc(Cl)cc1", "note": "(single isomer, unassigned) [Example 2, N-(4-{1-[1-(4-chlorophenyl)-2-(3,4-dihydroquinolin-1(2H)-yl)-2-oxoethyl]butyl}benzoyl)-β-alanine]", "IC50": 48},
      {"smiles": "CCCC(c1ccc(C(=O)NCCC(=O)O)cc1)C(C(=O)N1Cc2ccc(-c3cccnc3OC)cc2C1)c1ccc(Cl)cc1", "note": "(single isomer, unassigned) [Example 4, N-[4-(1-{1-(4-chlorophenyl)-2-[5-(2-methoxypyridin-3-yl)-1,3-dihydro-2H-isoindol2-yl]-2-oxoethyl}butyl)benzoyl]-β-alanine]", "IC50": 0.5},
      {"smiles": "CCCC(c1ccc(C(=O)NCCC(=O)O)cc1)C(C(=O)N1Cc2cccc(C)c2C1)c1ccc(Cl)cc1", "note": "(single isomer, unassigned) [Example 49]", "IC50": 0.1},
      {"smiles": "CCCC(c1ccc(C(=O)NCCC(=O)O)cc1)C(C(=O)N1Cc2cc(Cl)cc(Cl)c2C1)c1ccc(Cl)cc1", "note": "(single isomer, unassigned) [Example 55]", "IC50": 0.6},
      {"smiles": "CCCC(c1ccc(C(=O)NCCC(=O)O)cc1)C(C(=O)N1CCc2cc(-c3ccc(Cl)cc3)ccc2C1)c1ccc(Cl)cc1", "note": "(single isomer, unassigned) [Example 69]", "IC50": 1},
      {"smiles": "CCCC(c1ccc(C(=O)NCCC(=O)O)cc1)C(C(=O)N1CCc2cc(-c3ccc(C)cc3)ccc2C1)c1ccc(Cl)cc1", "note": "(single isomer, unassigned) [Example 70]", "IC50": 1.6},
      {"smiles": "CCCC(c1ccc(C(=O)NCCC(=O)O)cc1)C(C(=O)N1CCc2cc(OC)ccc2C1)c1ccc(Cl)cc1", "note": "(single isomer, unassigned) [Example 79]", "IC50": 1.5},
      {"smiles": "CCCC(c1ccc(C(=O)NCCC(=O)O)cc1)C(C(=O)N1CCc2cc(C(F)(F)F)ccc2C1)c1ccc(Cl)cc1", "note": "(single isomer, unassigned) [Example 80]", "IC50": 0.9},
      {"smiles": "CCCC(c1ccc(C(=O)NCCC(=O)O)cc1)C(C(=O)N1CCc2cc(C)ccc2C1)c1ccc(Cl)cc1", "note": "(single isomer, unassigned) [Example 82]", "IC50": 0.4},
      {"smiles": "CCCC(c1ccc(C(=O)NCCC(=O)O)cc1)C(C(=O)N1CCc2ccc(-c3ccc(C)cc3)cc2C1)c1ccc(Cl)cc1", "note": "(single isomer, unassigned) [Example 88]", "IC50": 3.2},
      {"smiles": "CCCC(c1ccc(C(=O)NCCC(=O)O)cc1)C(C(=O)N1CCc2ccc(F)cc2C1)c1ccc(Cl)cc1", "note": "(single isomer, unassigned) [Example 93]", "IC50": 9.8},
      {"smiles": "CCCC(c1ccc(C(=O)Nc2nnn[nH]2)cc1)C(C(=O)N1Cc2ccc(OC(F)(F)F)cc2C1)c1ccc(Cl)cc1", "note": "(stereo not shown) [Example 5]", "IC50": 2.2},
      {"smiles": "CCCC(c1ccc(C(=O)NCCC(=O)O)cc1)C(C(=O)N1Cc2ccc(C(F)(F)F)cc2C1)c1ccc(C(F)(F)F)cc1", "note": "(stereo not shown) [Example 6]", "IC50": 0.4},
      {"smiles": "CCCC(c1ccc(C(=O)NCCC(=O)O)cc1)C(C(=O)N1Cc2ccc(-c3ccc(OC)nc3)cc2C1)c1ccc(C(F)(F)F)cc1", "note": "(stereo not shown) [Example 8]", "IC50": 0.4},
      {"smiles": "CCCC(c1ccc(C(=O)NCCC(=O)O)cc1)C(C(=O)N1Cc2ccc(-c3ccc(OC)nc3)cc2C1)c1cc(F)cc(F)c1", "note": "(stereo not shown) [Example 9]", "IC50": 0.4},
      {"smiles": "CCCC(c1ccc(C(=O)NCCC(=O)O)cc1)C(C(=O)N1Cc2ccc(-c3cc(OC)ccn3)cc2C1)c1ccc(Cl)cc1", "note": "(stereo not shown) [Example 13]", "IC50": 2},
      {"smiles": "CCCC(c1ccc(C(=O)NCCC(=O)O)cc1)C(C(=O)N1Cc2ccc(-c3ccnc(C)c3)cc2C1)c1ccc(Cl)cc1", "note": "(stereo not shown) [Example 30]", "IC50": 0.6},
      {"smiles": "CCCC(c1ccc(C(=O)NCCC(=O)O)cc1)C(C(=O)N1Cc2ccc(C#N)cc2C1)c1ccc(Cl)cc1", "note": "(stereo not shown) [Example 36]", "IC50": 5.5},
      {"smiles": "CCCC(c1ccc(C(=O)NCCC(=O)O)cc1)C(C(=O)N1Cc2ccc(C)cc2C1)c1ccc(Cl)cc1", "note": "(stereo not shown) [Example 37]", "IC50": 0.6},
      {"smiles": "CCCC(c1ccc(C(=O)NCCC(=O)O)cc1)C(C(=O)N1Cc2ccc(-c3ccc(OC)nc3)cc2C1)c1ccc(Cl)cc1", "note": "(stereo not shown) [Example 41]", "IC50": 0.6},
      {"smiles": "CCCC(c1ccc(C(=O)NCCC(=O)O)cc1)C(C(=O)N1CCc2cc(-c3ccc(C)cc3)ccc21)c1ccc(Cl)cc1", "note": "(stereo not shown) [Example 63]", "IC50": 0.2},
      {"smiles": "CCCC(c1ccc(C(=O)NCCS(=O)(=O)O)cc1)C(C(=O)N1Cc2ccc(C(F)(F)F)cc2C1)c1ccc(Cl)cc1", "note": "(stereo not shown) [Example 107]", "IC50": 1.1}
    ]},
    {"biological_target": "T1, cloned human glucagon receptor", "test": "Glucagon Receptor Binding Assay (125I-Glucagon, SPA, CHO cell membranes)", "settings": "racemic diastereomers of Example 5 separated by reverse-phase HPLC; assay not given", "method": "as §1, §2", "values": [
      {"smiles": "CCCC(c1ccc(C(=O)Nc2nnn[nH]2)cc1)C(C(=O)N1Cc2ccc(OC(F)(F)F)cc2C1)c1ccc(Cl)cc1", "note": "(single isomer, unassigned) [Example 5 Minor isomer]", "potency as glucagon receptor antagonist relative to the other diastereomer": "less potent"},
      {"smiles": "CCCC(c1ccc(C(=O)Nc2nnn[nH]2)cc1)C(C(=O)N1Cc2ccc(OC(F)(F)F)cc2C1)c1ccc(Cl)cc1", "note": "(stereo not shown) [Example 5]", "potency as glucagon receptor antagonist relative to the other diastereomer": "more potent"}
    ]}
  ]
}
